Paper PMC8807614 (Scientific Reports, 2022)
Numbered stars: 1 amine (or outer) side, 2 acyl side, 3 side chain; on linkers, the order of the positions; unused ones are H or OH. Side chains are listed from the residue outwards. Ends that are not written are not given here. Peptide text beside a SMILES is read from it. * marks the point of attachment. γGlu = O=C(O)[C@H](CCC(=O)[*:2])N[*:1]; Stearoyl = CCCCCCCCCCCCCCCCCC(=O)*; AEEA = NCCOCCOCC(=O)O

Columns and labels:
[1] = In vivo plasma metabolite identification (MetID) of GUB03385; set-up: species or system DIO mice; settings: UPLC-Orbitrap MS; for %AUC 30 min: metabolite of GUB03385 in plasma of DIO mice 30 min after GUB03385 1250 nmol/kg SC; for %AUC 60 min: metabolite of GUB03385 in plasma of DIO mice 60 min after GUB03385 1250 nmol/kg SC; for %AUC 120 min: metabolite of GUB03385 in plasma of DIO mice 120 min after GUB03385 1250 nmol/kg SC
Method: Cardiac blood samples from DIO mice dosed with GUB03385 (1250 nmol/kg, SC, n = 10) were collected after 5, 10, 30, 60 and 120 min. Anaesthesia was performed using 2–4% isoflurane/O2 (Attane Vet., ScanVet Animal Health, Fredensborg, Denmark) inhalation. Blood samples were centrifuged (3000 g, 10 min) and plasma supernatants were stored at − 80 °C until MS analysis which was performed by Admescope Ltd (Oulu, Finland). Plasma precipitation was performed with twofold volume of cold acetonitrile containing 1% of formic acid. After centrifugation ([…], 10 min), supernatant was pipetted to 96-well plate and analysed using a Waters Acquity UPLC coupled to a Thermo Q-Exactive Focus Orbitrap MS. Peptides were separated on a Waters CSH C18 (2.1 × 50 mm, […]) column with a linear gradient from 2 to 40% acetonitrile over 3.5 min at a flowrate of 0.5 mL/min. Mass spectra were acquired in positive ionization mode in the mass range 133–2000 m/z with a resolution of 35,000; MS/MS data were acquired at a resolution of 17,500 in AIF mode with a normalized collision energy of 57. Data analysis and profiling of metabolites was performed by Admescope using Thermo XCalibur 4.1.31.9.

[2] = target: human NPFF2R (Homo sapiens, UniProt Q9Y5X5); test: NPFF2R functional activity assay (cAMP, HTRF); format: cell-based; settings: CHO-K1 cells stably expressing human NPFF2R, 1500 cells/well; HTRF cAMP (CisBio); 3 µM forskolin (~90% activity level); 30 min; DPBS, 0.5 mM IBMX, 0.05% casein; 11 concentrations
human NPFF2R, sequence (Q9Y5X5 whole entry): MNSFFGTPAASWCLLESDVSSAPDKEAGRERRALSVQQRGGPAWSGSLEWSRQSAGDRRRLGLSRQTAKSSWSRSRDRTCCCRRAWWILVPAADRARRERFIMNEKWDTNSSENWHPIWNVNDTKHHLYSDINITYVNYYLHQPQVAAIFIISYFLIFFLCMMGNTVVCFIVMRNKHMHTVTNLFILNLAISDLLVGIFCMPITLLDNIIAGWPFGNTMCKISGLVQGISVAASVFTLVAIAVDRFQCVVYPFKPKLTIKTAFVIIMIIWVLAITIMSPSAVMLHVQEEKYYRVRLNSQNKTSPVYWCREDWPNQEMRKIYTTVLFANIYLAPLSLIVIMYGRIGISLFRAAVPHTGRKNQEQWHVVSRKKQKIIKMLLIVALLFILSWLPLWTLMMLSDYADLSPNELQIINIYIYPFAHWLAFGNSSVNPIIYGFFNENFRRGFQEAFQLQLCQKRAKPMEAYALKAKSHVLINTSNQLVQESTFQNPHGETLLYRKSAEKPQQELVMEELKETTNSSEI
Method: Figure 3 GPR10 and NPFF2R profiling of in vivo metabolites of GUB03385. […] (b) cAMP measurements in human NPFF2R CHO-K cells (HTRF technology, CisBio) at a fixed concentration of 3 µM forskolin after 30 min. incubation at room temperature with metabolites and the native peptide NPSF. Representative curves of three determinations.
The Homogenous Time Resolved Fluorescence (HTRF) technology optimized for Gq coupled receptors has thoroughly been described in the CisBio IP1 kit manual (#62IPAPEC) and in the cAMP assay kit manual for Gi coupled receptors (#62AM9PEC). Briefly, this technic is based on a competitive immunoassay using cryptate-labelled anti-cAMP or anti-IP1 antibodies and d2-labeled cAMP or IP1. In the absence of cellular cAMP or IP1, the anti-cryptate conjugate may get into proximity to the d2 conjugate and energy (FRET) can be transferred from cryptate to d2. Chem-1 cells stably expressing the human prolactin releasing peptide receptor (GPR10, Eurofins, # HTS057C) and irradiated CHO-K1 cells stably expressing the human NPFF2R (PerkinElmer, #ES-490-CF) were applied as cells in suspension, brought to life from frozen cell stocks immediately before assay performance. 384-Well (Corning, #4513) assay formats with a total assay volume of 20 µl were applied. GPR10 cells (10.000 cells/well) were incubated with agonist peptides and the NPFF2R cells (1500 cells/well) were incubated with agonist peptides and forskolin (~ 90% activity level) for 30 min at 37 °C using IP1 kit stimulation buffer and DPBS (Sigma, #D8537) containing 0.5 mM IBMX (Sigma, # I5879), receptively. Both stimulation buffers were supplemented with 0.05% casein (Sigma, # C4765-10 ml). After addition of HTRF® detection reagents and incubation with shaking (2400 rpm) for one hour at room temperature signals at 620 and 665 nm (raw counts: ratio of 665/620) were detected at a ClarioStar plate reader (BMG Labtech, Ortenberg, Germany). Concentration–response evaluation of compounds was performed with 11 concentrations of agonist peptides (covering 3 decades) and EC50 values were calculated by nonlinear regression using sigmoid concentration–response with variable slope. Data were analysed using GraphPad v9.1 software (GraphPad, La Jolla, CA).

[3] = target: T1, human prolactin releasing peptide receptor (GPR10) (Homo sapiens, UniProt P49683); test: GPR10 functional activity assay (IP1, HTRF); format: cell-based; settings: Chem-1 cells stably expressing human GPR10, 10.000 cells/well; HTRF IP1 (CisBio); 30 min at 37 °C; IP1 stimulation buffer with 0.05% casein; 11 concentrations
T1 sequence (P49683 1-370): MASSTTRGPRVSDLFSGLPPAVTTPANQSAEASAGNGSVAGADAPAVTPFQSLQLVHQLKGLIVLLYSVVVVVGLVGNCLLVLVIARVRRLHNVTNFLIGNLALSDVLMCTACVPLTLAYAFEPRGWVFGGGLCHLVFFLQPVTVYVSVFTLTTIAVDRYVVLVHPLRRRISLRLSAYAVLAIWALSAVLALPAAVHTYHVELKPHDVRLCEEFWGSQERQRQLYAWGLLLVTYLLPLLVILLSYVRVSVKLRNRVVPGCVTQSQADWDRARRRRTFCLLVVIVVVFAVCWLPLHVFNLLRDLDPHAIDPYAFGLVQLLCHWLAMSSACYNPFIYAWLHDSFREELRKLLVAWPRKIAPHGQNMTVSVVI

%AUC 30 min [1] | %AUC 60 min [1] | %AUC 120 min [1] | Compound | also measured
18% | 9% | 7% | CCCCCCCCCCCCCCCCCC(=O)N[C@@H](CCC(=O)NCCOCCOCC(=O)NCCOCCOCC(=O)NCCCC[C@H](NC(=O)CNC(=O)[C@H](CCCNC(=N)N)NC(=O)[C@@H](N)CO)C(=O)N[C@@H](CCCNC(=N)N)C(=O)N1CCC[C@H]1C(=O)N[C@H](C(=O)NCC(=O)O)C(C)C)C(=O)O [GUB08249] (H-SRGK([AEEA-AEEA-γGlu-Stearoyl])RPVG-OH; C-terminus assumed) | 
 |  |  | TPDINPAWYASRGIRPVGRF-NH2 [PrRP20] | EC50 [2]: > 5000 nM; EC50 [3]: 0.2 nM
 |  |  | CC(C)C[C@H](NC(=O)[C@H](Cc1ccccc1)NC(=O)[C@H](C)NC(=O)[C@H](CCC(N)=O)NC(=O)[C@@H](N)CO)C(=O)N[C@@H](Cc1ccccc1)C(=O)N[C@@H](CCC(N)=O)C(=O)N1CCC[C@H]1C(=O)N[C@@H](CCC(N)=O)C(=O)N[C@@H](CCCNC(=N)N)C(=O)N[C@@H](Cc1ccccc1)C(N)=O [NPSF, neuropeptide SF] | EC50 [2]: 5.6 nM; EC50 [3]: > 5000 nM
 | 7% | 8% | CCCCCCCCCCCCCCCCCC(=O)N[C@@H](CCC(=O)NCCOCCOCC(=O)NCCOCCOCC(=O)NCCCC[C@H](NC(=O)CN)C(=O)N[C@@H](CCCNC(=N)N)C(=O)N1CCC[C@H]1C(=O)N[C@H](C(=O)NCC(=O)N[C@@H](CCCNC(=N)N)C(=O)N[C@@H](Cc1ccccc1)C(N)=O)C(C)C)C(=O)O [GUB08251] (H-GK([AEEA-AEEA-γGlu-Stearoyl])RPVGRF-NH2) | 
 | 11% | 15% | CCCCCCCCCCCCCCCCCC(=O)N[C@@H](CCC(=O)NCCOCCOCC(=O)NCCOCCOCC(=O)NCCCC[C@H](N)C(=O)N[C@@H](CCCNC(=N)N)C(=O)N1CCC[C@H]1C(=O)N[C@H](C(=O)NCC(=O)O)C(C)C)C(=O)O [GUB08253] (H-K([AEEA-AEEA-γGlu-Stearoyl])RPVG-OH; C-terminus assumed) | 
34% | 7% | 1% | CCCCCCCCCCCCCCCCCC(=O)N[C@@H](CCC(=O)NCCOCCOCC(=O)NCCOCCOCC(=O)NCCCC[C@H](NC(=O)CNC(=O)[C@H](CCCNC(=N)N)NC(=O)[C@H](CO)NC(=O)[C@H](C)N)C(=O)N[C@@H](CCCNC(=N)N)C(=O)N1CCC[C@H]1C(=O)N[C@H](C(=O)NCC(=O)O)C(C)C)C(=O)O [GUB08247] (H-ASRGK([AEEA-AEEA-γGlu-Stearoyl])RPVG-OH; C-terminus assumed) | 
 | 5% | 11% | CCCCCCCCCCCCCCCCCC(=O)N[C@@H](CCC(=O)NCCOCCOCC(=O)NCCOCCOCC(=O)NCCCC[C@H](N)C(=O)N[C@@H](CCCNC(=N)N)C(=O)N1CCC[C@H]1C(=O)N[C@H](C(=O)O)C(C)C)C(=O)O [GUB08254] (H-K([AEEA-AEEA-γGlu-Stearoyl])RPV-OH; C-terminus assumed) | 
 |  |  | CCCCCCCCCCCCCCCCCC(=O)N[C@@H](CCC(=O)NCCOCCOCC(=O)NCCOCCOCC(=O)NCCCC[C@H](NC(=O)CNC(=O)[C@H](CCCNC(=N)N)NC(=O)[C@H](CO)NC(=O)[C@H](C)NC(=O)[C@H](Cc1ccc(O)cc1)NC(=O)[C@H](Cc1c[nH]c2ccccc12)NC(=O)[C@H](C)NC(=O)[C@@H]1CCCN1C(=O)[C@H](CC(N)=O)NC(=O)[C@@H](NC(=O)[C@H](CC(=O)O)NC(=O)[C@@H]1CCCN1C(=O)[C@@H](NC(=O)[C@H](CCCNC(=N)N)NC(=O)[C@@H](NC(=O)[C@H](CCC(=O)O)NC(=O)[C@H](CCSC)NC(=O)[C@H](CO)NC(=O)[C@H](Cc1c[nH]cn1)NC(=O)[C@H](CCCNC(=N)N)NC(=O)[C@H](Cc1c[nH]cn1)NC(=O)[C@@H](NC(=O)[C@H](CCCNC(=N)N)NC(=O)[C@@H](N)CO)[C@@H](C)O)[C@@H](C)CC)[C@@H](C)O)[C@@H](C)CC)C(=O)N[C@@H](CCCNC(=N)N)C(=O)N1CCC[C@H]1C(=O)N[C@H](C(=O)NCC(=O)N[C@@H](CCCNC(=N)N)C(=O)N[C@@H](Cc1ccccc1)C(N)=O)C(C)C)C(=O)O [GUB03385] (H-SRTHRHSMEIRTPDINPAWYASRGK([AEEA-AEEA-γGlu-Stearoyl])RPVGRF-NH2) | time of degradation after subcutaneous administration ([1]; DIO mice, 1250 nmol/kg SC, plasma): < 30 min
48% | 23% | 14% | CCCCCCCCCCCCCCCCCC(=O)N[C@@H](CCC(=O)NCCOCCOCC(=O)NCCOCCOCC(=O)NCCCC[C@H](NC(=O)CNC(=O)[C@H](CCCNC(=N)N)NC(=O)[C@@H](N)CO)C(=O)N[C@@H](CCCNC(=N)N)C(=O)N1CCC[C@H]1C(=O)N[C@H](C(=O)O)C(C)C)C(=O)O [GUB08250] (H-SRGK([AEEA-AEEA-γGlu-Stearoyl])RPV-OH; C-terminus assumed) | 
 | 11% | 10% | CCCCCCCCCCCCCCCCCC(=O)N[C@@H](CCC(=O)NCCOCCOCC(=O)NCCOCCOCC(=O)NCCCC[C@H](N)C(=O)N[C@@H](CCCNC(=N)N)C(=O)N1CCC[C@H]1C(=O)N[C@H](C(=O)NCC(=O)N[C@@H](CCCNC(=N)N)C(=O)O)C(C)C)C(=O)O [GUB08252] (H-K([AEEA-AEEA-γGlu-Stearoyl])RPVGR-OH; C-terminus assumed) | 
 |  |  | CC[C@H](C)[C@H](NC(=O)CNC(=O)[C@H](CCCNC(=N)N)NC(=O)[C@H](CO)NC(=O)[C@H](C)NC(=O)[C@H](Cc1ccc(O)cc1)NC(=O)[C@H](Cc1c[nH]c2ccccc12)NC(=O)[C@H](C)NC(=O)[C@@H]1CCCN1C(=O)[C@H](CC(N)=O)NC(=O)[C@@H](NC(=O)[C@H](CC(=O)O)NC(=O)[C@@H]1CCCN1C(=O)[C@@H](NC(=O)[C@H](CCCNC(=N)N)NC(=O)[C@@H](NC(=O)[C@H](CCC(=O)O)NC(=O)[C@H](CCSC)NC(=O)[C@H](CO)NC(=O)[C@H](Cc1c[nH]cn1)NC(=O)[C@H](CCCNC(=N)N)NC(=O)[C@H](Cc1c[nH]cn1)NC(=O)[C@@H](NC(=O)[C@H](CCCNC(=N)N)NC(=O)[C@@H](N)CO)[C@@H](C)O)[C@@H](C)CC)[C@@H](C)O)[C@@H](C)CC)C(=O)N[C@@H](CCCNC(=N)N)C(=O)N1CCC[C@H]1C(=O)N[C@H](C(=O)NCC(=O)N[C@@H](CCCNC(=N)N)C(=O)N[C@@H](Cc1ccccc1)C(N)=O)C(C)C [PrRP31] | EC50 [2]: > 5000 nM
11% | 5% |  | CCCCCCCCCCCCCCCCCC(=O)N[C@@H](CCC(=O)NCCOCCOCC(=O)NCCOCCOCC(=O)NCCCC[C@H](NC(=O)CNC(=O)[C@H](CCCNC(=N)N)NC(=O)[C@@H](N)CO)C(=O)N[C@@H](CCCNC(=N)N)C(=O)N1CCC[C@H]1C(=O)N[C@H](C(=O)NCC(=O)N[C@@H](CCCNC(=N)N)C(=O)N[C@@H](Cc1ccccc1)C(N)=O)C(C)C)C(=O)O [GUB08248] (H-SRGK([AEEA-AEEA-γGlu-Stearoyl])RPVGRF-NH2) | 
